US8383679B2, “Crystal form of calcium 3-acetylaminopropane-1-sulfonate” (Merck Patent Gesellschaft mit beschränkter Haftung, priority 2008, dated 2013)

Tests used:
[1] = Enthalpy of solution, 2225 Thermometrics Solution calorimeter; format: physicochemical
[2] = Suspension-conversion experiments; format: physicochemical; settings: suspension of crystals
Text: Suitable suspension media are solvents in which the active compound is soluble, where the active compound is employed in a weight ratio in relation to the respective solvent in the suspension in which the solubility limit of the active compound in the solvent is exceeded, so that the active compound is predominantly in the form of a solid in the suspension. Suitable suspension media are, for example, water, methanol and/or tetrahydrofuran (THE), where water is particularly preferred.

Structure (SMILES)	enthalpy of solution ([1]; in water at 25° C.)	conversion of crystal form in suspension [2]	thermodynamic stability (free Gibbs enthalpy) relative to the other crystal form ([1]; concluded from enthalpies of solution)	difference in enthalpy of solution between form II and form I ([1]; in water at 25° C.)
CC(=O)NCCCS(=O)(=O)O [form I, calcium 3-acetylaminopropane-1-sulfonate]	-23.1 ± 0.2 J/g	rearrangement to crystal form II		
CC(=O)NCCCS(=O)(=O)O [form II, calcium 3-acetylaminopropane-1-sulfonate]	16.2 ± 0.2 J/g		thermodynamically more stable than form I	6.9 ± 0.4 J/g
